Reference: publication PMC5622171 (Nature Communications, 2017)

Key:
Test in all cases: KINOMEscan kinase profiling
Format in all cases: binding
ERBB2 = target: T1, ERBB2 (Homo sapiens, UniProt P04626); details: read-out: %Inhibition by 10 μM SPA70
T1 construct: purchased DiscoverX (Ambit Biosciences) KINOMEscan
In short: (§1)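 KINOMEscan profiling followed a published protocol. Kinases whose inhibition exceeded a set cut-off were then tested in a dilution series beginning at 30 µM.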

DAPK1 = target: T2, DAPK1 (Homo sapiens, UniProt P53355); details: read-out: %Inhibition by 10 μM SPA70
T2 construct: purchased DiscoverX (Ambit Biosciences) KINOMEscan
In short: as §1

IRAK1 = target: T3, IRAK1 (Homo sapiens, UniProt P51617); details: read-out: %Inhibition by 10 μM SPA70
T3 construct: purchased DiscoverX (Ambit Biosciences) KINOMEscan
In short: as §1

SRMS = target: T4, SRMS (Homo sapiens, UniProt Q9H3Y6); details: read-out: %Inhibition by 10 μM SPA70
T4 construct: purchased DiscoverX (Ambit Biosciences) KINOMEscan
In short: as §1

CLK4 = target: T5, CLK4 (Homo sapiens, UniProt Q9HAZ1); details: read-out: %Inhibition by 10 μM SPA70
T5 construct: purchased DiscoverX (Ambit Biosciences) KINOMEscan
In short: as §1

PKAC-beta = target: T6, PKAC-beta (Homo sapiens, UniProt P22694)
T6 construct: purchased DiscoverX (Ambit Biosciences) KINOMEscan
In short: as §1

CDKL2 = target: T7, CDKL2 (Homo sapiens, UniProt Q92772); details: read-out: %Inhibition by 10 μM SPA70
T7 construct: purchased DiscoverX (Ambit Biosciences) KINOMEscan
In short: as §1

EPHA7 = target: T8, EPHA7 (Homo sapiens, UniProt Q15375); details: read-out: %Inhibition by 10 μM SPA70
T8 construct: purchased DiscoverX (Ambit Biosciences) KINOMEscan
In short: as §1

CIT = target: T9, CIT (Homo sapiens, UniProt O14578)
T9 construct: purchased DiscoverX (Ambit Biosciences) KINOMEscan
In short: as §1

DCAMKL3 = target: T10, DCAMKL3 (Homo sapiens, UniProt Q9C098); details: read-out: %Inhibition by 10 μM SPA70
T10 construct: purchased DiscoverX (Ambit Biosciences) KINOMEscan
In short: as §1

TBK1 = target: T11, TBK1 (Homo sapiens, UniProt Q9UHD2); details: read-out: %Inhibition by 10 μM SPA70
T11 construct: purchased DiscoverX (Ambit Biosciences) KINOMEscan
In short: as §1

PAK6 = target: T12, PAK6 (Homo sapiens, UniProt Q9NQU5); details: read-out: %Inhibition by 10 μM SPA70
T12 construct: purchased DiscoverX (Ambit Biosciences) KINOMEscan
In short: as §1

EPHA6 = target: T13, EPHA6 (Homo sapiens, UniProt Q9UF33); details: read-out: %Inhibition by 10 μM SPA70
T13 construct: purchased DiscoverX (Ambit Biosciences) KINOMEscan
In short: as §1

CAMKK2 = target: T14, CAMKK2 (Homo sapiens, UniProt Q96RR4); details: read-out: %Inhibition by 10 μM SPA70
T14 construct: purchased DiscoverX (Ambit Biosciences) KINOMEscan
In short: as §1

NEK5 = target: T15, NEK5 (Homo sapiens, UniProt Q6P3R8); details: read-out: %Inhibition by 10 μM SPA70
T15 construct: purchased DiscoverX (Ambit Biosciences) KINOMEscan
In short: as §1

MRCKB = target: T16, MRCKB (Homo sapiens, UniProt Q9Y5S2); details: read-out: %Inhibition by 10 μM SPA70
T16 construct: purchased DiscoverX (Ambit Biosciences) KINOMEscan
In short: as §1

CAMK1G = target: T17, CAMK1G (Homo sapiens, UniProt Q96NX5); details: read-out: %Inhibition by 10 μM SPA70
T17 construct: purchased DiscoverX (Ambit Biosciences) KINOMEscan
In short: as §1

ULK3 = target: T18, ULK3 (Homo sapiens, UniProt Q6PHR2)
T18 construct: purchased DiscoverX (Ambit Biosciences) KINOMEscan
In short: as §1

PRKD3 = target: T19, PRKD3 (Homo sapiens, UniProt O94806); details: read-out: %Inhibition by 10 μM SPA70
T19 construct: purchased DiscoverX (Ambit Biosciences) KINOMEscan
In short: as §1

RIPK4 = target: T20, RIPK4 (Homo sapiens, UniProt P57078); details: read-out: %Inhibition by 10 μM SPA70
T20 construct: purchased DiscoverX (Ambit Biosciences) KINOMEscan
In short: as §1

PDGFRA = target: T21, PDGFRA (Homo sapiens, UniProt P16234); details: read-out: %Inhibition by 10 μM SPA70
T21 construct: purchased DiscoverX (Ambit Biosciences) KINOMEscan
In short: as §1

EGFR = target: T22, EGFR (Homo sapiens, UniProt P00533)
T22 construct: purchased DiscoverX (Ambit Biosciences) KINOMEscan
In short: as §1

ACVR1 = target: T23, ACVR1 (Homo sapiens, UniProt Q04771); details: read-out: %Inhibition by 10 μM SPA70
T23 construct: purchased DiscoverX (Ambit Biosciences) KINOMEscan
In short: as §1

TGFBR2 = target: T24, TGFBR2 (Homo sapiens, UniProt P37173); details: read-out: %Inhibition by 10 μM SPA70
T24 construct: purchased DiscoverX (Ambit Biosciences) KINOMEscan
In short: as §1

ABL2 = target: T25, ABL2 (Homo sapiens, UniProt P42684); details: read-out: %Inhibition by 10 μM SPA70
T25 construct: purchased DiscoverX (Ambit Biosciences) KINOMEscan
In short: as §1

GSK3A = target: T26, GSK3A (Homo sapiens, UniProt P49840)
T26 construct: purchased DiscoverX (Ambit Biosciences) KINOMEscan
In short: as §1

MST4 = target: T27, MST4 (Homo sapiens, UniProt Q9P289); details: read-out: %Inhibition by 10 μM SPA70
T27 construct: purchased DiscoverX (Ambit Biosciences) KINOMEscan
In short: as §1

PRKCQ = target: T28, PRKCQ (Homo sapiens, UniProt Q04759); details: read-out: %Inhibition by 10 μM SPA70
T28 construct: purchased DiscoverX (Ambit Biosciences) KINOMEscan
In short: as §1

PRKD1 = target: T29, PRKD1 (Homo sapiens, UniProt Q15139); details: read-out: %Inhibition by 10 μM SPA70
T29 construct: purchased DiscoverX (Ambit Biosciences) KINOMEscan
In short: as §1

BRK = target: T30, BRK (Homo sapiens, UniProt Q13882); details: read-out: %Inhibition by 10 μM SPA70
T30 construct: purchased DiscoverX (Ambit Biosciences) KINOMEscan
In short: as §1

CDK3 = target: T31, CDK3 (Homo sapiens, UniProt Q00526)
T31 construct: purchased DiscoverX (Ambit Biosciences) KINOMEscan
In short: as §1

FGFR4 = target: T32, FGFR4 (Homo sapiens, UniProt P22455); details: read-out: %Inhibition by 10 μM SPA70
T32 construct: purchased DiscoverX (Ambit Biosciences) KINOMEscan
In short: as §1

PRKCE = target: T33, PRKCE (Homo sapiens, UniProt Q02156); details: read-out: %Inhibition by 10 μM SPA70
T33 construct: purchased DiscoverX (Ambit Biosciences) KINOMEscan
In short: as §1

AKT3 = target: T34, AKT3 (Homo sapiens, UniProt Q9Y243); details: read-out: %Inhibition by 10 μM SPA70
T34 construct: purchased DiscoverX (Ambit Biosciences) KINOMEscan
In short: as §1

LTK = target: T35, LTK (Homo sapiens, UniProt P29376); details: read-out: %Inhibition by 10 μM SPA70
T35 construct: purchased DiscoverX (Ambit Biosciences) KINOMEscan
In short: as §1

CSF1R = target: T36, CSF1R (Homo sapiens, UniProt P07333)
T36 construct: purchased Ambit Biosciences, now part of DiscoveryX
In short: as §1

PIP5K1C = target: T37, PIP5K1C (Homo sapiens, UniProt O60331)
T37 construct: purchased DiscoverX (Ambit Biosciences) KINOMEscan
In short: as §1

MST3 = target: T38, MST3 (Homo sapiens, UniProt Q9Y6E0)
T38 construct: purchased DiscoverX (Ambit Biosciences) KINOMEscan
In short: as §1

NEK3 = target: T39, NEK3 (Homo sapiens, UniProt P51956); details: read-out: %Inhibition by 10 μM SPA70
T39 construct: purchased DiscoverX (Ambit Biosciences) KINOMEscan
In short: as §1

MEK1 = target: T40, MEK1 (Homo sapiens, UniProt Q02750); details: read-out: %Inhibition by 10 μM SPA70
T40 construct: purchased DiscoverX (Ambit Biosciences) KINOMEscan
In short: as §1

YANK2 = target: T41, YANK2 (Homo sapiens, UniProt Q9NY57); details: read-out: %Inhibition by 10 μM SPA70
T41 construct: purchased DiscoverX (Ambit Biosciences) KINOMEscan
In short: as §1

CDK4-cyclinD1 = target: T42, CDK4-cyclinD1 (Homo sapiens, UniProt P11802); details: read-out: %Inhibition by 10 μM SPA70
T42 construct: purchased DiscoverX (Ambit Biosciences) KINOMEscan
In short: as §1

[1] = read-out: %Inhibition by 10 μM SPA70

T26 sequence (P49840 whole entry): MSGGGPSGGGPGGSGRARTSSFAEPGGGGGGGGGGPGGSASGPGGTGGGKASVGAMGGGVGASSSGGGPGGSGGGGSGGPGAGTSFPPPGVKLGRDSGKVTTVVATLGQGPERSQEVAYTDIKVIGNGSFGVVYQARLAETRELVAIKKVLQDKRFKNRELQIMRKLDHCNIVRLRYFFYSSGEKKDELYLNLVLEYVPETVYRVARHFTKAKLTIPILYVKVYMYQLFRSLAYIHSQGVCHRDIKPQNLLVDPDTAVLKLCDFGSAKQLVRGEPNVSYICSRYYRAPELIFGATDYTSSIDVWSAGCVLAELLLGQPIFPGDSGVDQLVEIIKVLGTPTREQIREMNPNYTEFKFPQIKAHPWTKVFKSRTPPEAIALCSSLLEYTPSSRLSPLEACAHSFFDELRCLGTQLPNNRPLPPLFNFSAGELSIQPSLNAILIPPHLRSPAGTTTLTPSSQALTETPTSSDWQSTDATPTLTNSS
T36 sequence (P07333 20-972): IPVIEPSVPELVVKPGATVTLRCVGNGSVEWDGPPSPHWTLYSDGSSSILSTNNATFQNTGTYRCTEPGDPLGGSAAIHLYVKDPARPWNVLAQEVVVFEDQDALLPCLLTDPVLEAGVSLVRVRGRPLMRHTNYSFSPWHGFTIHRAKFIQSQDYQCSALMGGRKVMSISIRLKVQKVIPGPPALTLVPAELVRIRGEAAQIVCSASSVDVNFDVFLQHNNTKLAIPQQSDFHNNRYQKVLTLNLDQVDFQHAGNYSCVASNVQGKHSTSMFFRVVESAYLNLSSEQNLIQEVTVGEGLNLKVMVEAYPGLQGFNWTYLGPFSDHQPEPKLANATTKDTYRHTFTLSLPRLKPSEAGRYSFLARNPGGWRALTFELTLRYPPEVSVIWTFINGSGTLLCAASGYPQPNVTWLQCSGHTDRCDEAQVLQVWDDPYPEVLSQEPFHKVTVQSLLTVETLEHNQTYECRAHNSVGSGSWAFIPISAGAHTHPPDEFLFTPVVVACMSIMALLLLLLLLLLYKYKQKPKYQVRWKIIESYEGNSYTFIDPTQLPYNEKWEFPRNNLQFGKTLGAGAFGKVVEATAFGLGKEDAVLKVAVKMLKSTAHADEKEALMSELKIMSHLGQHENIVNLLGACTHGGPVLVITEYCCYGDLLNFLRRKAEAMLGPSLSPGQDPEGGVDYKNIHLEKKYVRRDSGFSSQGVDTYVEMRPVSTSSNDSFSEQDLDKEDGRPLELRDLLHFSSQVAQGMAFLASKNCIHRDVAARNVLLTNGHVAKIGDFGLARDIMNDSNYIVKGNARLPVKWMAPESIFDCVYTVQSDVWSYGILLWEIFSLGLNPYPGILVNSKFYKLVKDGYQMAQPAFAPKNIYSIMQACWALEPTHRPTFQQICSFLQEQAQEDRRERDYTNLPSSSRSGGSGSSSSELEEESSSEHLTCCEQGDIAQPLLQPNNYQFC
T12 sequence (Q9NQU5 whole entry): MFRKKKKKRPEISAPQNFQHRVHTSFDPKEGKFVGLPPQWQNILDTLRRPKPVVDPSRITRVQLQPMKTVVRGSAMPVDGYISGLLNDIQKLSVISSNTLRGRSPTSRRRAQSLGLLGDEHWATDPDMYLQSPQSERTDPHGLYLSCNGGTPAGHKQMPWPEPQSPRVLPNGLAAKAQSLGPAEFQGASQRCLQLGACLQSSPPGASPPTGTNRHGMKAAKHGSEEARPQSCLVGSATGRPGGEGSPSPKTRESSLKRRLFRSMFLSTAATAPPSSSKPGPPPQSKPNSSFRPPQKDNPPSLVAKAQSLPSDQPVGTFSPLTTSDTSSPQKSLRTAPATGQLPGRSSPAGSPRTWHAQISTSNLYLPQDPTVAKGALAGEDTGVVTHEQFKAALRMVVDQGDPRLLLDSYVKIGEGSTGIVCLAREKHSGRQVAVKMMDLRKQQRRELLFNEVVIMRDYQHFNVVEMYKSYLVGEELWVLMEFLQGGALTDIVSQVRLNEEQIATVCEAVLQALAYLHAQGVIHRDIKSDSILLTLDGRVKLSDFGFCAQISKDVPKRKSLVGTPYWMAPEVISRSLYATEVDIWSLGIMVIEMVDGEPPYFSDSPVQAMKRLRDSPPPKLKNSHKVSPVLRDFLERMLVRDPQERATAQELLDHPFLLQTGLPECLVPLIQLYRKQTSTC
T17 sequence (Q96NX5 whole entry): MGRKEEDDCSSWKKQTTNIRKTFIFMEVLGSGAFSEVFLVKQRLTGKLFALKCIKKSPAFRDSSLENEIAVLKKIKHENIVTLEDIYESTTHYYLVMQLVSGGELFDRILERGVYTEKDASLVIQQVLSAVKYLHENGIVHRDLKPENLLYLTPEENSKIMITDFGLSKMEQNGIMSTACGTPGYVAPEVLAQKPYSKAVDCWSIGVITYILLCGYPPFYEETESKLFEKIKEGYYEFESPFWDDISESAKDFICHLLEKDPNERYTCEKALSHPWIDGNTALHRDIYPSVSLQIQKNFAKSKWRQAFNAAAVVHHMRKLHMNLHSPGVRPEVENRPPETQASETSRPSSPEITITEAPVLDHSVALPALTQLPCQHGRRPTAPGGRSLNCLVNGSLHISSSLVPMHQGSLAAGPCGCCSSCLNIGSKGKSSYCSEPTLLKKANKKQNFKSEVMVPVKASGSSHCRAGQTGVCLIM
T23 sequence (Q04771 21-509): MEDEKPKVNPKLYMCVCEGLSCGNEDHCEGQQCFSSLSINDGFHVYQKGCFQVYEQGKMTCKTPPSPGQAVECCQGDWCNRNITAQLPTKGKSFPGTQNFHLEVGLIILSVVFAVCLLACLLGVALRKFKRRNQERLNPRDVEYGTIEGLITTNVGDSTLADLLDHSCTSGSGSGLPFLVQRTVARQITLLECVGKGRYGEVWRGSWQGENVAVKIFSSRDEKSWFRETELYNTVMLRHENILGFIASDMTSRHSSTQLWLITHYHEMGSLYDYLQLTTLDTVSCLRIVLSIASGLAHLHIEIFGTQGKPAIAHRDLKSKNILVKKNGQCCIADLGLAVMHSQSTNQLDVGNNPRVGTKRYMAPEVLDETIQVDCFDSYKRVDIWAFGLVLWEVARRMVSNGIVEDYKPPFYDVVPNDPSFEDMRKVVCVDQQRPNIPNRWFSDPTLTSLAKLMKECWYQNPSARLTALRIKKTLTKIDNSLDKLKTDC
T18 sequence (Q6PHR2 whole entry): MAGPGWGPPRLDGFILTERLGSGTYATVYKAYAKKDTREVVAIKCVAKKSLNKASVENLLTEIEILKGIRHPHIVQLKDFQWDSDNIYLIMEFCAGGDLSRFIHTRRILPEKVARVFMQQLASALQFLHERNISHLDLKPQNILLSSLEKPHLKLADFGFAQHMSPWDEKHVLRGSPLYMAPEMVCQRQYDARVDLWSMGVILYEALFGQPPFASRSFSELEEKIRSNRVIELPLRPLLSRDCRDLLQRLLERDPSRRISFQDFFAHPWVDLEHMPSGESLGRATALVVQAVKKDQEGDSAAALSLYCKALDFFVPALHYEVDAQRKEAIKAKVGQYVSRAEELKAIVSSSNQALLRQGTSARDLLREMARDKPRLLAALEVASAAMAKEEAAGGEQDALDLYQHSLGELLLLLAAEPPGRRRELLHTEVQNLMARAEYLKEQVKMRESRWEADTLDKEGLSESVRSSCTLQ
T1 sequence (P04626 23-1255): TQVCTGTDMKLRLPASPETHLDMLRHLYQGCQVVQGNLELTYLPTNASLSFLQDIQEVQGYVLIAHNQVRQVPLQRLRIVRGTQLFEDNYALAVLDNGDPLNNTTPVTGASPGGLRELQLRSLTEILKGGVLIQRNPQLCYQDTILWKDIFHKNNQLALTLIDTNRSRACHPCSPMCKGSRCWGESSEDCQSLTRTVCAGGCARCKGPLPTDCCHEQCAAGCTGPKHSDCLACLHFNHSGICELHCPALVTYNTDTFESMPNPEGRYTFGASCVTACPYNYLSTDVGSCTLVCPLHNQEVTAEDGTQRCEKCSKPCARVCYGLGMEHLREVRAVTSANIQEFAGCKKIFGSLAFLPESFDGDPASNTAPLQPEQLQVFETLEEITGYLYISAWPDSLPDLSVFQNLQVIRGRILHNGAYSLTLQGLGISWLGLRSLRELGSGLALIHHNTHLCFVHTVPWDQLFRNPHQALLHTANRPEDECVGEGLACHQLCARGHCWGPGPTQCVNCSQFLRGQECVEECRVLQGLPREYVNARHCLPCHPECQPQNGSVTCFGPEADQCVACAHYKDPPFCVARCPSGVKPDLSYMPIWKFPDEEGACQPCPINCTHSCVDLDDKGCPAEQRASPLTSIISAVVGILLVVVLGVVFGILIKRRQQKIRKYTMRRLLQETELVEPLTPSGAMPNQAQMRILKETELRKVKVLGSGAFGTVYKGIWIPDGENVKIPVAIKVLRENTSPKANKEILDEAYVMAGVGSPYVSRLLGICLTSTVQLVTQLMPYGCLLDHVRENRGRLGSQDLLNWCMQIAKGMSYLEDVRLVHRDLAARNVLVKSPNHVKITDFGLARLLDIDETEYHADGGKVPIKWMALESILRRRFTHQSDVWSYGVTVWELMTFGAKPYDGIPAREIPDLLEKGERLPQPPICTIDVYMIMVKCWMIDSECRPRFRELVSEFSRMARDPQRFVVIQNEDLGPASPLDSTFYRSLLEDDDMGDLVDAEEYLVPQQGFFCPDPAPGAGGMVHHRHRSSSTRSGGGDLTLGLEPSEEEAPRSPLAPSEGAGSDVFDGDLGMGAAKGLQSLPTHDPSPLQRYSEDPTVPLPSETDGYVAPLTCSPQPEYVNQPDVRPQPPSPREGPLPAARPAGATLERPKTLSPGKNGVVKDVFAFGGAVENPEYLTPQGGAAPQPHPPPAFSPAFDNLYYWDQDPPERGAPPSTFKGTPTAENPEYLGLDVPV

COc1ccc(OC)c(-n2nnc(S(=O)(=O)c3ccc(C(C)(C)C)cc3)c2C)c1 [SPA70]
inhibition at 10 µM (ERBB2): 5% | inhibition at 10 µM (DAPK1): 10% | inhibition at 10 µM (IRAK1): 0% | inhibition at 10 µM (SRMS): 0% | inhibition at 10 µM (CLK4): 4% | %Inhibition by 10 μM SPA70 (PKAC-beta): not inhibited | inhibition at 10 µM (PKAC-beta; [1]): 0% | inhibition at 10 µM (CDKL2): 22% | inhibition at 10 µM (EPHA7): 0% | %Inhibition by 10 μM SPA70 (CIT): 12% | inhibition at 10 µM (DCAMKL3): 0% | inhibition at 10 µM (TBK1): 0% | inhibition at 10 µM (PAK6): 4% | inhibition at 10 µM (EPHA6): 0% | inhibition at 10 µM (CAMKK2): 0% | inhibition at 10 µM (NEK5): 0% | inhibition at 10 µM (MRCKB): 0% | inhibition at 10 µM (CAMK1G): 25% | %Inhibition by 10 μM SPA70 (ULK3): 2% | inhibition at 10 µM (PRKD3): 0% | inhibition at 10 µM (RIPK4): 0% | inhibition at 10 µM (PDGFRA): 36% | %Inhibition by 10 μM SPA70 (EGFR): 0% | inhibition at 10 µM (ACVR1): 0% | inhibition at 10 µM (TGFBR2): 1% | inhibition at 10 µM (ABL2): 0% | %Inhibition by 10 μM SPA70 (GSK3A): not inhibited | inhibition at 10 µM (GSK3A; [1]): 0% | inhibition at 10 µM (MST4): 15% | inhibition at 10 µM (PRKCQ): 4% | inhibition at 10 µM (PRKD1): 0% | inhibition at 10 µM (BRK): 0% | %Inhibition by 10 μM SPA70 (CDK3): 3% | inhibition at 10 µM (FGFR4): 5% | inhibition at 10 µM (PRKCE): 0% | inhibition at 10 µM (AKT3): 0% | inhibition at 10 µM (LTK): 6% | Kd (CSF1R; 11-point 3-fold serial dilutions starting from 30 µM): 4 µM | inhibition at 10 µM (CSF1R; [1]): 63% | %Inhibition by 10 μM SPA70 (PIP5K1C): 0% | %Inhibition by 10 μM SPA70 (MST3): 0% | inhibition at 10 µM (NEK3): 0% | inhibition at 10 µM (MEK1): 11% | inhibition at 10 µM (YANK2): 0% | inhibition at 10 µM (CDK4-cyclinD1): 20%
